The NIST ThermoML archive (doi:10.1016/j.tca.2018.08.015)

Assays:
[1] = for Glass transition temperature: DSC
[2] = molar heat capacity at constant pressure; conditions: 101.33 kPa, DSC
[3] = Molar enthalpy of transition or fusion; conditions: Crystal; DSC

c1ccc(-c2cccc(-c3ccccc3)c2)cc1 [m-terphenyl]
Conditions | Normal melting temperature [°C] | molar heat capacity at constant pressure [J/K/mol]
[1], Crystal, DTA | 88 | –
[2], 212 K, Crystal | – | 190.6
[2], 212 K, Glass | – | 193.8
[2], 217 K, Glass | – | 200
[2], 222 K, Crystal | – | 200.7
[2], 222 K, Glass | – | 206.2
[2], 227 K, Glass | – | 212.4
[2], 232 K, Crystal | – | 210.8
[2], 232 K, Glass | – | 218.6
[2], 237 K, Glass | – | 224.8
[2], 242 K, Crystal | – | 220.8
[2], 252 K, Crystal | – | 230.9
[2], 262 K, Crystal | – | 241
[2], 272 K, Crystal | – | 251.1
[2], 280 K, Liquid | – | 364.8
[2], 282 K, Crystal | – | 261.2
[2], 290 K, Liquid | – | 370.5
[2], 292 K, Crystal | – | 271.2
[2], 300 K, Liquid | – | 376.3
[2], 302 K, Crystal | – | 281.3
[2], 310 K, Liquid | – | 382.1
[2], 312 K, Crystal | – | 291.4
[2], 318 K, Crystal | – | 299.5
[2], 320 K, Liquid | – | 387.8
[2], 322 K, Crystal | – | 301.5
[2], 323 K, Crystal | – | 304.2
[2], 328 K, Crystal | – | 308.9
[2], 330 K, Crystal | – | 309.5
[2], 330 K, Liquid | – | 393.6
[2], 333 K, Crystal | – | 313.5
[2], 338 K, Crystal | – | 318.2
[2], 340 K, Liquid | – | 399.3
[2], 343 K, Crystal | – | 322.9
[2], 348 K, Crystal | – | 327.5
[2], 350 K, Liquid | – | 405.1
[2], 360 K, Liquid | – | 410.9
[2], 370 K, Liquid | – | 416.6
[2], 378 K, Liquid | – | 421.2

Conditions | Glass transition temperature [°C] | Molar enthalpy of transition or fusion [kJ/mol]
[1] | -17 | –
[3] | – | 23.8

c1ccc(-c2ccccc2-c2ccccc2)cc1 [o-terphenyl]
Conditions | Glass transition temperature [°C]
[1] | -3

[2]
Conditions | molar heat capacity at constant pressure [J/K/mol]
212 K, Glass | 181.5
217 K, Glass | 187.8
222 K, Glass | 194
227 K, Glass | 200.3
232 K, Glass | 206.5
237 K, Glass | 212.8
242 K, Glass | 219
280 K, Liquid | 356.2
290 K, Liquid | 363.1
300 K, Liquid | 370
310 K, Liquid | 376.9
320 K, Liquid | 383.8
330 K, Liquid | 390.7
340 K, Liquid | 397.6
350 K, Liquid | 404.4
